Values joined by “and” are separate entries in the source; they are usually repeats but may differ in a detail not shown here. Equal entries are not always repeated. Where two headings read alike, the source gives them in different places.
Tests used:
NHDF cells = test: α-SMA evaluation in NHDF; format: cell-based, human; conditions: TGF-β 0.1 ng/ml, 72 h; read-out: IC50, α-SMA expression
Protocol: The medium was then replaced with an assay medium containing or lacking (control conditions) the test compound, and TGF-β (0.1 ng ml^−1) was added or not (unstimulated control). […] All experimental conditions were performed in five replicates. For in situ immunolabeling and image analysis, at the end of the incubation, fibroblasts were rinsed, fixed and permeabilized. […] Image acquisition was performed using a high-resolution imaging system, the IN Cell Analyzer 2200 (GE Healthcare) automated microscope (objective lens, ×20). Five pictures per well were taken. Labeling was quantified by measuring the fluorescence intensity of α-SMA signals normalized to the total number of nuclei identified (integration of numerical data was performed with the Developer Toolbox 1.5, GE Healthcare software).

C57BL/6 mice = test: LPS-induced acute lung injury model; format: in vivo, mouse; conditions: individual animals, Fig 3E-F;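 note: bronchoalveolar lavage fluid sampled one day after intratracheal LPS challenge, cytokines measured by ELISA in supernatant, lymphocytes counted on Diff-Quick stained cytospin smears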
Protocol: One day before the first experimental day, animals were grouped. All mice were anesthetized with Zoletil–xylazine (50 mpk and 10 mpk, i.p.). At 0 h, mice received LPS at a dose of 50 μl as 50 μg per mouse (groups 2–5, n = 8 per group) or 50 μl saline (group 1, n = 8 per group) by intratracheal administration. […] In the dexamethasone group (group 5), animals were treated with dexamethasone both 2 h before and 4 h after the LPS challenge. Twenty-four hours after the LPS challenge, animals were euthanized, and BALF samples were collected.
Mice were first anesthetized with Zoletil–xylazine (50 mpk and 10 mpk, i.p.). Next, a 1.5–2-cm longitudinal incision was made on the ventral side of the neck to expose the trachea by blunt dissection, and curved forceps were placed underneath the trachea. A 10–12-cm piece of suture was then threaded underneath the trachea using forceps. The ends of the suture were then pulled cranially to ‘stretch’ the trachea toward the surgeon. A 20-G needle was then used to poke a hole in the trachea as close to the larynx as possible. A 22-G blunt stainless steel needle connected to PE tubing was placed in the hole and inserted approximately 5–8 mm into the trachea. The cannula was secured in the trachea by tying the suture around it with an overhand knot. A 1-ml syringe containing 0.4 ml saline was gently pushed forward and backward three times to recover BALF fluid. BALF was transferred into empty tubes and stored on ice. This process was repeated twice with 0.3 ml saline for a total volume of 1 ml.
Total cell numbers were counted with a standard hemocytometer by mixing 20 μl BALF with 20 μl trypan blue. Cytospins were prepared by cytocentrifugation using Cytospins at 106g for 5 min, and then smears of BALF cells were stained with Diff-Quick stain. Cell differentiation was performed by counting at least 400 cells using standard hemocytologic criteria to classify them as alveolar macrophages or monocytes, neutrophils, eosinophils or lymphocytes. The rest of the BALF fluid was centrifuged, and supernatants were collected and stored at −80 °C for cytokine, chemokine and total protein analysis.
From the collected BALF, concentrations of cytokines were measured from mice in groups 2–7 killed on day 28. Mouse BALF cytokines and chemokines were measured using the ELISA Analysis Kit (Sinobest Bio). Mouse BALF soluble collagen was measured using the Soluble Collagen kit (Biocolor). Mouse lung hydroxyproline content was measured using the Hydroxyproline Assay Kit (Njjcbio).

A549 cells = conditions: for E-Cadherin/GAPDH normalized: DMSO=1; for N-Cadherin/GAPDH normalized / Smad2/3/GAPDH normalized / p- Smad2/3/GAPDH normalized / b-catenin/ HDAC2 normalized / b-catenin/ Histone 3 normalized / b-catenin/ tubulin normalized: TGF-β=1; for P65/GAPDH normalized / p-P65/GAPDH normalized: TGF-β+TNF-a=1
[1] = G4 INS018_055 3mpk BID, 3 mg/kg
[2] = G5 INS018_055 10mpk BID, 10 mg/kg
[3] = G7 INS018_055 20mpk QD, 20 mg/kg
[4] = 0.1 μM, TGF-β+TNF-a group, Batch 1
[5] = 0.1 μM, TGF-β+TNF-a group, Batch 2
[6] = 0.1 μM, TGF-β+TNF-a group, Batch 3

With CC(C)n1cnc(-c2ccc(F)cc2)c1-c1nc(C(=O)Nc2ccc(N3CCN(C)CC3)cc2)c[nH]1 [INS018_055, 2-[4-(4-fluorophenyl)-1-(prop-2-yl)imidazol-5-yl]-N-[4-(4-methylhexahydropyrazin-1-yl)phenyl]-1H-imidazole-4-carboxamide] the IC50 (NHDF cells) was 25 nM, the IL-1β (C57BL/6 mice; [1]) was 76.808 and 90.9173 and 84.4347 and 88.6293 and 81.7653 and 68.4187 and 91.2987 and 66.512 and the IL-4 (C57BL/6 mice; [1]) was 44.4779 and 48.864 and 44.3266 and 42.2092 and 40.6967 and 44.6291 and 41.1504 and 43.4191. The IL-6 (C57BL/6 mice; [1]) was 23.78 and 22.3 and 25.4 and 24.37 and 27.02 and 28.05 and 25.54 and 22.45, the IL-7 (C57BL/6 mice; [1]) was 29.29 and 30.58 and 25.61 and 25.43 and 23.95 and 22.3 and 26.16 and 33.16 and the Lymphocytes (C57BL/6 mice; [1]) was 9000 and 7000 and 5750 and 18000 and 15600 and 4800 and 11200 and 5600. For the same compound, the TNF-alpha (C57BL/6 mice; [1]) was 286.33 and 268.83 and 288.52 and 360.7 and 260.08 and 336.64 and 303.83 and 209.77, the IL-1β (C57BL/6 mice; [2]) was 66.512 and 53.5467 and 55.0721 and 69.944 and 59.2667 and 64.2241 and 56.5974 and the IL-4 (C57BL/6 mice; [2]) was 47.5028 and 53.8551 and 49.9227 and 42.8141 and 45.5366 and 45.0828 and 51.2839 and 46.8978. The IL-6 (C57BL/6 mice; [2]) was 20.39 and 23.04 and 25.84 and 22.45 and 25.99 and 18.47 and 19.8, the IL-7 (C57BL/6 mice; [2]) was 19.9 and 17.14 and 19.72 and 14.2 and 24.69 and 21.38 and 23.4 and 26.72 and the Lymphocytes (C57BL/6 mice; [2]) was 19800 and 10350 and 7200 and 6000 and 5400 and 8200 and 6450. For the same compound, the TNF-alpha (C57BL/6 mice; [2]) was 238.21 and 262.27 and 306.02 and 187.89 and 181.33 and 336.64 and 196.64 and 198.83, the IL-1β (C57BL/6 mice; G6 INS018_055 6mpk QD, 6 mg/kg) was 71.4694 and 80.24 and 88.248 and 64.6054 and 63.0801 and 87.104 and 80.6214 and the IL-4 (C57BL/6 mice; G6 INS018_055 6mpk QD, 6 mg/kg) was 42.3604 and 46.7466 and 42.8141 and 44.4779 and 47.9565 and 44.7804 and 48.7128 and 38.7305. The IL-6 (C57BL/6 mice; G6 INS018_055 6mpk QD, 6 mg/kg) was 27.31 and 23.19 and 22.45 and 27.76 and 33.8 and 25.99 and 28.93 and 26.87, the IL-7 (C57BL/6 mice; G6 INS018_055 6mpk QD, 6 mg/kg) was 27.82 and 30.4 and 27.08 and 33.16 and 21.19 and 31.69 and 25.8 and 28.37 and the Lymphocytes (C57BL/6 mice; G6 INS018_055 6mpk QD, 6 mg/kg) was 5200 and 1650 and 3850 and 2700 and 5250 and 5500 and 2600. The TNF-alpha (C57BL/6 mice; G6 INS018_055 6mpk QD, 6 mg/kg) was 290.7 and 236.02 and 376.01 and 218.52 and 330.08 and 244.77 and 391.33 and 310.39, the IL-1β (C57BL/6 mice; [3]) was 62.6987 and 77.952 and 78.7147 and 61.5547 and 74.52 and 71.8507 and 60.7921 and 57.3601 and the IL-4 (C57BL/6 mice; [3]) was 48.1078 and 43.2679 and 48.4103 and 52.3427 and 52.0402 and 44.6291 and 51.7377 and 50.074. The IL-6 (C57BL/6 mice; [3]) was 22.74 and 25.84 and 21.71 and 18.17 and 26.58 and 23.63 and 22.15 and 25.69, the IL-7 (C57BL/6 mice; [3]) was 16.59 and 21.38 and 22.67 and 18.98 and 27.45 and 24.14 and 31.32 and 16.04 and the Lymphocytes (C57BL/6 mice; [3]) was 6500 and 7200 and 8250 and 11600 and 6900 and 1650 and 6100 and 2700. The TNF-alpha (C57BL/6 mice; [3]) was 244.77 and 214.14 and 279.77 and 218.52 and 163.83 and 341.01 and 179.15 and 292.89, the E-Cadherin/GAPDH normalized (A549 cells; 0.1 μM, Batch 1) was 0.882 and the N-Cadherin/GAPDH normalized (A549 cells; 0.1 μM, Batch 1) was 0.7004. For the same compound, the Smad2/3/GAPDH normalized (A549 cells; 0.1 μM, Batch 1) was 1.169, the “p- Smad2/3/GAPDH normalized” value (A549 cells; 0.1 μM, Batch 1) was 0.1198 and the E-Cadherin/GAPDH normalized (A549 cells; 0.1 μM, Batch 2) was 0.7553. For the same compound, the N-Cadherin/GAPDH normalized (A549 cells; 0.1 μM, Batch 2) was 0.5859, the Smad2/3/GAPDH normalized (A549 cells; 0.1 μM, Batch 2) was 1.386 and the “b-catenin/ HDAC2 normalized” value (A549 cells; 0.1 μM, Batch 2) was 0.9011. For the same compound, the “b-catenin/ Histone 3 normalized” value (A549 cells; 0.1 μM, Batch 2) was 1.011, the b-catenin/ tubulin normalized (A549 cells; 0.1 μM, Batch 2) was 0.7986 and the “p- Smad2/3/GAPDH normalized” value (A549 cells; 0.1 μM, Batch 2) was 0.1997. The E-Cadherin/GAPDH normalized (A549 cells; 0.1 μM, Batch 3) was 1.033, the N-Cadherin/GAPDH normalized (A549 cells; 0.1 μM, Batch 3) was 0.3543 and the Smad2/3/GAPDH normalized (A549 cells; 0.1 μM, Batch 3) was 0.9832. For the same compound, the “b-catenin/ HDAC2 normalized” value (A549 cells; 0.1 μM, Batch 3) was 0.6944, the “b-catenin/ Histone 3 normalized” value (A549 cells; 0.1 μM, Batch 3) was 1.35 and the b-catenin/ tubulin normalized (A549 cells; 0.1 μM, Batch 3) was 1.101. For the same compound, the “p- Smad2/3/GAPDH normalized” value (A549 cells; 0.1 μM, Batch 3) was 0.212, the “b-catenin/ HDAC2 normalized” value (A549 cells; 0.1 μM, Batch 4) was 1.905 and the “b-catenin/ Histone 3 normalized” value (A549 cells; 0.1 μM, Batch 4) was 0.9078. The b-catenin/ tubulin normalized (A549 cells; 0.1 μM, Batch 4) was 1.377, the P65/GAPDH normalized (A549 cells; 0.1 μM, TGF-β group, Batch 1) was 0.4666 and the p-P65/GAPDH normalized (A549 cells; 0.1 μM, TGF-β group, Batch 1) was 0.1387. For the same compound, the P65/GAPDH normalized (A549 cells; 0.1 μM, TGF-β group, Batch 2) was 0.8513, the p-P65/GAPDH normalized (A549 cells; 0.1 μM, TGF-β group, Batch 2) was 0.05722 and the P65/GAPDH normalized (A549 cells; 0.1 μM, TGF-β group, Batch 3) was 0.4658. It also gave a p-P65/GAPDH normalized (A549 cells; 0.1 μM, TGF-β group, Batch 3) of 0.04967, a P65/GAPDH normalized (A549 cells; [4]) of 0.668 and a p-P65/GAPDH normalized (A549 cells; [4]) of 0.6884. For the same compound, the P65/GAPDH normalized (A549 cells; [5]) was 0.75, the p-P65/GAPDH normalized (A549 cells; [5]) was 0.7416 and the P65/GAPDH normalized (A549 cells; [6]) was 0.4563. For the same compound, the p-P65/GAPDH normalized (A549 cells; [6]) was 0.5057, the E-Cadherin/GAPDH normalized (A549 cells; 0.3 μM, Batch 1) was 1.52 and the N-Cadherin/GAPDH normalized (A549 cells; 0.3 μM, Batch 1) was 0.1615. The Smad2/3/GAPDH normalized (A549 cells; 0.3 μM, Batch 1) was 1.047, the “p- Smad2/3/GAPDH normalized” value (A549 cells; 0.3 μM, Batch 1) was 0.03 and the E-Cadherin/GAPDH normalized (A549 cells; 0.3 μM, Batch 2) was 1.01. For the same compound, the N-Cadherin/GAPDH normalized (A549 cells; 0.3 μM, Batch 2) was 0.2158, the Smad2/3/GAPDH normalized (A549 cells; 0.3 μM, Batch 2) was 1.249 and the “b-catenin/ HDAC2 normalized” value (A549 cells; 0.3 μM, Batch 2) was 0.8061. For the same compound, the “b-catenin/ Histone 3 normalized” value (A549 cells; 0.3 μM, Batch 2) was 0.5919, the b-catenin/ tubulin normalized (A549 cells; 0.3 μM, Batch 2) was 0.4991 and the “p- Smad2/3/GAPDH normalized” value (A549 cells; 0.3 μM, Batch 2) was 0.1456. For the same compound, the E-Cadherin/GAPDH normalized (A549 cells; 0.3 μM, Batch 3) was 0.9712, the N-Cadherin/GAPDH normalized (A549 cells; 0.3 μM, Batch 3) was 0.1387 and the Smad2/3/GAPDH normalized (A549 cells; 0.3 μM, Batch 3) was 1.033. The “b-catenin/ HDAC2 normalized” value (A549 cells; 0.3 μM, Batch 3) was 0.9297, the “b-catenin/ Histone 3 normalized” value (A549 cells; 0.3 μM, Batch 3) was 0.5389 and the b-catenin/ tubulin normalized (A549 cells; 0.3 μM, Batch 3) was 1.411. The “p- Smad2/3/GAPDH normalized” value (A549 cells; 0.3 μM, Batch 3) was 0.1442, the “b-catenin/ HDAC2 normalized” value (A549 cells; 0.3 μM, Batch 4) was 0.672 and the “b-catenin/ Histone 3 normalized” value (A549 cells; 0.3 μM, Batch 4) was 0.7931.

Reference: paper PMC11738990, “A small-molecule TNIK inhibitor targets fibrosis in preclinical and clinical models” (Nature Biotechnology, 2024)
